Test results published in paper PMC3022030 (PLoS ONE, 2011).
Where two headings read alike, the source gives them in different places.

Assays:
Experiment in all cases: biochemical
QacR [1] = molecular target: T1, QacR (Staphylococcus aureus, UniProt P0A0N3, E120A)
QacR [2] = molecular target: T2, QacR (Staphylococcus aureus, UniProt P0A0N3, E90A)
QacR [3] = molecular target: T1, QacR; remark: listed apart in the source
QacR [4] = molecular target: T2, QacR; remark: listed apart in the source

| SMILES | Kd (QacR [1]) | Kd (QacR [2]) | Kd (QacR [3]) | Kd (QacR [4]) |
| --- | --- | --- | --- | --- |
| Cc1cc(N)c2ccccc2[n+]1CCCCCCCCCC[n+]1c(C)cc(N)c2ccccc21 [dequalinium] | 2400 ± 600 nM | 1800 ± 70 nM |  |  |
| CC[n+]1c(-c2ccccc2)c2cc(N)ccc2c2ccc(N)cc21 [ethidium] |  |  | 1250 ± 150 nM | 1030 ± 90 nM |
| CN(C)c1ccc(C(=C2C=CC(=[N+](C)C)C=C2)c2ccccc2)cc1 [malachite green] |  |  | 980 ± 320 nM | 1490 ± 100 nM |
| CCN=c1cc2oc3cc(NCC)c(C)cc3c(-c3ccccc3C(=O)OCC)c-2cc1C [rhodamine 6G] |  |  | 170 ± 10 nM | 210 ± 20 nM |
